Reference: article PMC8401933 (Molecules, 2021)

Key:
Experiment in all cases: KINOMEscan binding
Details in all cases: read-out: Percent Control
PIK3CA(E545K) = molecular target: T1, PIK3CA(E545K) (Homo sapiens, UniProt P42336, E545K)
T1 construct: purchased Eurofins DiscoverX KINOMEscan

PIK3CA(E545A) = molecular target: T2, PIK3CA(E545A) (Homo sapiens, UniProt P42336, E545A)
T2 construct: purchased Eurofins DiscoverX KINOMEscan

WNK3 = molecular target: T3, WNK3 (Homo sapiens, UniProt Q9BYP7)
T3 construct: purchased Eurofins DiscoverX KINOMEscan

TESK1 = molecular target: T4, TESK1 (Homo sapiens, UniProt Q15569)
T4 construct: purchased Eurofins DiscoverX KINOMEscan

FGFR2 = molecular target: T5, FGFR2 (Homo sapiens, UniProt P21802)
T5 construct: purchased Eurofins DiscoverX KINOMEscan

LATS1 = molecular target: T6, LATS1 (Homo sapiens, UniProt O95835)
T6 construct: purchased Eurofins DiscoverX KINOMEscan

ACVRL1 = molecular target: T7, ACVRL1 (Homo sapiens, UniProt P37023)
T7 construct: purchased Eurofins DiscoverX KINOMEscan
T7 sequence (P37023 22-503): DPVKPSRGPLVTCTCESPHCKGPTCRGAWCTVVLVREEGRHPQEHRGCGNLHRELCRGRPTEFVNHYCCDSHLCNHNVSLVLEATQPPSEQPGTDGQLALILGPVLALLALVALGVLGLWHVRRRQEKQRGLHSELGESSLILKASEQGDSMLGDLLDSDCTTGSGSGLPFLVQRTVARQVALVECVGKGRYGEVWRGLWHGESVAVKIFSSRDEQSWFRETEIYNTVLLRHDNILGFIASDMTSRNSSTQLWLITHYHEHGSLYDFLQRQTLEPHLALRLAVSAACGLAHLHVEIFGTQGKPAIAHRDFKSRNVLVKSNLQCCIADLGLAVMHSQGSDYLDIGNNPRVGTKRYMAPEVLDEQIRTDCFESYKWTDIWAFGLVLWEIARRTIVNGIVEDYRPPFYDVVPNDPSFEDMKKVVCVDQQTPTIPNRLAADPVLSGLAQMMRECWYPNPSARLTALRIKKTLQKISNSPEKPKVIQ

NEK2 = molecular target: T8, NEK2 (Homo sapiens, UniProt P51955)
T8 construct: purchased Eurofins DiscoverX KINOMEscan

KIT = molecular target: T9, KIT (Homo sapiens, UniProt P10721)
T9 construct: purchased Eurofins DiscoverX KINOMEscan

PCTK3 = molecular target: T10, PCTK3 (Homo sapiens, UniProt Q07002)
T10 construct: purchased Eurofins DiscoverX KINOMEscan
T10 sequence (Q07002 whole entry): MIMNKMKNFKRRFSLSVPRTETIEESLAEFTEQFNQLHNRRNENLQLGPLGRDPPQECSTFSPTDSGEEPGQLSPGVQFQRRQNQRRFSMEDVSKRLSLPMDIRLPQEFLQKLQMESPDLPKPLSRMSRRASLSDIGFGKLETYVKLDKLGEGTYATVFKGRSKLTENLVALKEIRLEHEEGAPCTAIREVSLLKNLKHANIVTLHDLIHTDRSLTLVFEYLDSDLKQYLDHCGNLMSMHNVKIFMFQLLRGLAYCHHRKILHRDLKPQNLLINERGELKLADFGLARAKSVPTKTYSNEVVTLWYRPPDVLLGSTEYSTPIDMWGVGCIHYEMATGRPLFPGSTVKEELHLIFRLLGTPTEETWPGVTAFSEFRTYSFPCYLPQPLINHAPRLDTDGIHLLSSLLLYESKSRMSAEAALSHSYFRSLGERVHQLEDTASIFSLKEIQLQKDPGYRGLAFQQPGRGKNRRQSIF

MAPKAPK2 = molecular target: T11, MAPKAPK2 (Homo sapiens, UniProt P49137)
T11 construct: purchased Eurofins DiscoverX KINOMEscan

RIOK2 = molecular target: T12, RIOK2 (Homo sapiens, UniProt Q9BVS4)
T12 construct: purchased Eurofins DiscoverX KINOMEscan

TSSK1B = molecular target: T13, TSSK1B (Homo sapiens, UniProt Q9BXA7)
T13 construct: purchased Eurofins DiscoverX KINOMEscan

IRAK4 = molecular target: T14, IRAK4 (Homo sapiens, UniProt Q9NWZ3)
T14 construct: purchased Eurofins DiscoverX KINOMEscan

RIOK1 = molecular target: T15, RIOK1 (Homo sapiens, UniProt Q9BRS2)
T15 construct: purchased Eurofins DiscoverX KINOMEscan

PDGFRB = molecular target: T16, PDGFRB (Homo sapiens, UniProt P09619)
T16 construct: purchased Eurofins DiscoverX KINOMEscan
T16 sequence (P09619 33-1106): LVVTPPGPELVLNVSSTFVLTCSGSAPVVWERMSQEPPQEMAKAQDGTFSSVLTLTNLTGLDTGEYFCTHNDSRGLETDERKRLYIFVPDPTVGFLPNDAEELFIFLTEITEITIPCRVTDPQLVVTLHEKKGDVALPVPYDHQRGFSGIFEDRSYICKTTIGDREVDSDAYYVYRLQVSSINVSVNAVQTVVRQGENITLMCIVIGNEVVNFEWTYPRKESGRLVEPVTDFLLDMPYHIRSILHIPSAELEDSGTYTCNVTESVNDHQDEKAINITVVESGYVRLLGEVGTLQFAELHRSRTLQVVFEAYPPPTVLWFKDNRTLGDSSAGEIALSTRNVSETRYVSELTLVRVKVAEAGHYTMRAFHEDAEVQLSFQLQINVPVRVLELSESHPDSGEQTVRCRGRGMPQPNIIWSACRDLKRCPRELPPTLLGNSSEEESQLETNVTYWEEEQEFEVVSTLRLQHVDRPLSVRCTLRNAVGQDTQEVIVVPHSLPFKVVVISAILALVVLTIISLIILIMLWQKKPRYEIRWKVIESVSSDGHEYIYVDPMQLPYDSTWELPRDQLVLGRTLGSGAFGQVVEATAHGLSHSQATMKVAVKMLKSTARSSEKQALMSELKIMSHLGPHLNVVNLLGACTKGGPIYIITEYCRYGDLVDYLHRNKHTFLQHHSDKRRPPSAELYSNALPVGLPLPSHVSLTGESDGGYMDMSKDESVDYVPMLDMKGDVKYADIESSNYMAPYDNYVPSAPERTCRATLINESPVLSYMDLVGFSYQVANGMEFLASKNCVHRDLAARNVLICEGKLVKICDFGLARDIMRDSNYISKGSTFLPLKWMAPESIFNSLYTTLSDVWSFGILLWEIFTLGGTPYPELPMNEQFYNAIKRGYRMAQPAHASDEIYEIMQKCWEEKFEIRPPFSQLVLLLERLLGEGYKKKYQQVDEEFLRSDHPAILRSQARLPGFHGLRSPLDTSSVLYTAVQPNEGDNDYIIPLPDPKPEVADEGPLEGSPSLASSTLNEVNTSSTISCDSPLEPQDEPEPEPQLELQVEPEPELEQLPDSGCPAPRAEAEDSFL

PIK3CA(H1047Y) = molecular target: T17, PIK3CA(H1047Y) (Homo sapiens, UniProt P42336, H1047Y)
T17 construct: purchased Eurofins DiscoverX KINOMEscan
T17 sequence (P42336 whole entry H1047Y): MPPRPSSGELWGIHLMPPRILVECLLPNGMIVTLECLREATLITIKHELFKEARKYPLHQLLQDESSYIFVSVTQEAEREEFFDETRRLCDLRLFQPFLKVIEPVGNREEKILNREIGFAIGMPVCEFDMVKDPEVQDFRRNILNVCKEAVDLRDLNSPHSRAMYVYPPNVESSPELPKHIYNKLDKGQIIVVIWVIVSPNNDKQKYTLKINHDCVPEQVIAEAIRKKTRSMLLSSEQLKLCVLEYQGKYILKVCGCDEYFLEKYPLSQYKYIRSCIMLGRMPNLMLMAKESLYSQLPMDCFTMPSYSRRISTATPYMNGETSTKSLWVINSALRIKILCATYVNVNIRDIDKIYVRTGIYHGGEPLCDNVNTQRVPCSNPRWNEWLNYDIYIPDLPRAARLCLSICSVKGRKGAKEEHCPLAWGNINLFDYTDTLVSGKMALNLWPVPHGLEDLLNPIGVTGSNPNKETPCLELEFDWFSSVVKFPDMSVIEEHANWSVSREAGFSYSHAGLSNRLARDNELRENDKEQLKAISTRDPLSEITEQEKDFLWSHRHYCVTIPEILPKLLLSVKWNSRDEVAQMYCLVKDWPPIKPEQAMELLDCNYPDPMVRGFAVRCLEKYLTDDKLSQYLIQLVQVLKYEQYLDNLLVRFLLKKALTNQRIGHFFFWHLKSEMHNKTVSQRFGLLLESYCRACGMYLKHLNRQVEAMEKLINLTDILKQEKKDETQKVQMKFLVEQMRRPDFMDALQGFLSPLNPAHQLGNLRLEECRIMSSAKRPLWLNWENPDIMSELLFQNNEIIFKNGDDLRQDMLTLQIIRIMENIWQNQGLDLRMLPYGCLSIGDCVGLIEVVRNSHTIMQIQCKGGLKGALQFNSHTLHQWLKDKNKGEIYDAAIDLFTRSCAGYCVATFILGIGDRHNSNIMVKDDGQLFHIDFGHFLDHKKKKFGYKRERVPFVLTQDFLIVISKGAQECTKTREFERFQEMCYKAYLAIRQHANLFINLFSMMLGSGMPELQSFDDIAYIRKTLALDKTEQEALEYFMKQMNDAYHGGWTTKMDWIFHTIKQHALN

CDK4-cyclinD1 = molecular target: T18, CDK4-cyclinD1 (Homo sapiens, UniProt P11802)
T18 construct: purchased Eurofins DiscoverX KINOMEscan

RET(V804L) = molecular target: T19, RET(V804L) (Homo sapiens, UniProt P07949, V804L)
T19 construct: purchased Eurofins DiscoverX KINOMEscan

PIM2 = molecular target: T20, PIM2 (Homo sapiens, UniProt Q9P1W9)
T20 construct: purchased Eurofins DiscoverX KINOMEscan
T20 sequence (Q9P1W9 whole entry): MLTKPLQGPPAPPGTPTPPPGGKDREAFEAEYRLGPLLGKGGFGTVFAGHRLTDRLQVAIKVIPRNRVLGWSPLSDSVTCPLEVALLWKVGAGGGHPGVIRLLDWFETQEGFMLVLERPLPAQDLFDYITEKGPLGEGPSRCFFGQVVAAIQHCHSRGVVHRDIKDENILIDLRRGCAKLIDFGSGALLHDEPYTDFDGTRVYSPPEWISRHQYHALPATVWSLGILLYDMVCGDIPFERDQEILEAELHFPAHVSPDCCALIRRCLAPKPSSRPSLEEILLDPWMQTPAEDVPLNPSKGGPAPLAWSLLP

KIT(A829P) = molecular target: T21, KIT(A829P) (Homo sapiens, UniProt P10721, A829P)
T21 construct: purchased Eurofins DiscoverX KINOMEscan

GSK3A = molecular target: T22, GSK3A (Homo sapiens, UniProt P49840)
T22 construct: purchased Eurofins DiscoverX KINOMEscan
T22 sequence (P49840 whole entry): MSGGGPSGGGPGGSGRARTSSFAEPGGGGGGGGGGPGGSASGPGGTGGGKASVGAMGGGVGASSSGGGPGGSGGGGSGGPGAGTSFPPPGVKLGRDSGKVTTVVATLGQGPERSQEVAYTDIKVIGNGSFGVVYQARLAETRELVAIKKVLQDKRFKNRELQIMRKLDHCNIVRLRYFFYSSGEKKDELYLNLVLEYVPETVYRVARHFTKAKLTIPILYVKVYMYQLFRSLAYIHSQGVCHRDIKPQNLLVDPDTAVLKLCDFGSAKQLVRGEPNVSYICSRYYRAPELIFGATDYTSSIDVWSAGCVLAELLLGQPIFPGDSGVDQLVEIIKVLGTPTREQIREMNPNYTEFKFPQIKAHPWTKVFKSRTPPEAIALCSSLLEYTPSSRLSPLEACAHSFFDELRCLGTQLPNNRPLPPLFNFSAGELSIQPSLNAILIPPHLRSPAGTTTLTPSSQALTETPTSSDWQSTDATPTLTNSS

WEE1 = molecular target: T23, WEE1 (Homo sapiens, UniProt P30291)
T23 construct: purchased Eurofins DiscoverX KINOMEscan

S6K1 = molecular target: T24, S6K1 (Homo sapiens, UniProt P23443)
T24 construct: purchased Eurofins DiscoverX KINOMEscan

GRK4 = molecular target: T25, GRK4 (Homo sapiens, UniProt P32298)
T25 construct: purchased Eurofins DiscoverX KINOMEscan

PLK1 = molecular target: T26, PLK1 (Homo sapiens, UniProt P53350)
T26 construct: purchased Eurofins DiscoverX KINOMEscan

FES = molecular target: T27, FES (Homo sapiens, UniProt P07332)
T27 construct: purchased Eurofins DiscoverX KINOMEscan

CDK8 = molecular target: T28, CDK8 (Homo sapiens, UniProt P49336)
T28 construct: purchased Eurofins DiscoverX KINOMEscan

YANK1 = molecular target: T29, YANK1 (Homo sapiens, UniProt Q8WU08)
T29 construct: purchased Eurofins DiscoverX KINOMEscan

CTK = molecular target: T30, CTK (Homo sapiens, UniProt P42679)
T30 construct: purchased Eurofins DiscoverX KINOMEscan
T30 sequence (P42679 whole entry): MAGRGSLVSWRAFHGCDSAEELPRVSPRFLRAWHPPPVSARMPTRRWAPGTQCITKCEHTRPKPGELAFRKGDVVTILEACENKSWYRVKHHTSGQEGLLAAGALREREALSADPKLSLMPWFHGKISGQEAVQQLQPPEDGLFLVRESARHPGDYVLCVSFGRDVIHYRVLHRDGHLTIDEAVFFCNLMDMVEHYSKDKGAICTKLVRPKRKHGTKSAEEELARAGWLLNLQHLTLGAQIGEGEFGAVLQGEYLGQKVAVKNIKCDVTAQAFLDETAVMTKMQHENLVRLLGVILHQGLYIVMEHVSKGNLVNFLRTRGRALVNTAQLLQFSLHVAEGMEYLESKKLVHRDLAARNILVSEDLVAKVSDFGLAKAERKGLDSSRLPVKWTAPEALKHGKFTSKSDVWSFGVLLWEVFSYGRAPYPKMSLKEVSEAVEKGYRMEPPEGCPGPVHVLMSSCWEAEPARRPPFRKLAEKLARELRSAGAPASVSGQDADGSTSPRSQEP

CLK3 = molecular target: T31, CLK3 (Homo sapiens, UniProt P49761)
T31 construct: purchased Eurofins DiscoverX KINOMEscan
T31 sequence (P49761 whole entry): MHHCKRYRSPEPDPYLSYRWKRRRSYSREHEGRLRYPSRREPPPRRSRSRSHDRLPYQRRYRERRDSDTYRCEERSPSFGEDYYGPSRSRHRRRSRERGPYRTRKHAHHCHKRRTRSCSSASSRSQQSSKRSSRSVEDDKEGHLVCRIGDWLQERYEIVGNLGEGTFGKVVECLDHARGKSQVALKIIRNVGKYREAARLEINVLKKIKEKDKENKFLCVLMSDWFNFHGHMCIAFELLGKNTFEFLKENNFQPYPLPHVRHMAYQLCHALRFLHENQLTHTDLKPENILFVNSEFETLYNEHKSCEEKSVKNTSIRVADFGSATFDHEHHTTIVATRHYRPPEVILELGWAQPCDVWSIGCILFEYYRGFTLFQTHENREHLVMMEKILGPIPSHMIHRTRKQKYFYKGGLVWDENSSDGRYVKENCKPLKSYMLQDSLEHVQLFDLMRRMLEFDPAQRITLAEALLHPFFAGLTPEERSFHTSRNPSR

PIM3 = molecular target: T32, PIM3 (Homo sapiens, UniProt Q86V86)
T32 construct: purchased Eurofins DiscoverX KINOMEscan

T2 sequence (P42336 whole entry E545A): as the sequence (P42336 whole entry H1047Y) above, with E545A, Y1047H counted along it
T1 sequence (P42336 whole entry E545K): as the sequence (P42336 whole entry H1047Y) above, with E545K, Y1047H counted along it

CC(C)NC(=O)COc1cccc(-c2nc(Nc3ccc4[nH]ncc4c3)c3ccccc3n2)c1 [KD025, 2-(3-(4-((1H-indazol-5-yl)amino)quinazolin-2-yl)phenoxy)-N-isopropylacetamide]
remaining binding at 10 µM (PIK3CA(E545K)): 94% | remaining binding at 10 µM (PIK3CA(E545A)): 65% | remaining binding at 10 µM (WNK3): 82% | remaining binding at 10 µM (TESK1): 73% | remaining binding at 10 µM (FGFR2): 84% | remaining binding at 10 µM (LATS1): 48% | remaining binding at 10 µM (ACVRL1): 76% | remaining binding at 10 µM (NEK2): 83% | remaining binding at 10 µM (KIT): 79% | remaining binding at 10 µM (PCTK3): 81% | remaining binding at 10 µM (MAPKAPK2): 100% | remaining binding at 10 µM (RIOK2): 60% | remaining binding at 10 µM (TSSK1B): 76% | remaining binding at 10 µM (IRAK4): 100% | remaining binding at 10 µM (RIOK1): 6.2% | remaining binding at 10 µM (PDGFRB): 76% | remaining binding at 10 µM (PIK3CA(H1047Y)): 87% | remaining binding at 10 µM (CDK4-cyclinD1): 89% | remaining binding at 10 µM (RET(V804L)): 67% | remaining binding at 10 µM (PIM2): 85% | remaining binding at 10 µM (KIT(A829P)): 53% | remaining binding at 10 µM (GSK3A): 100% | remaining binding at 10 µM (WEE1): 100% | remaining binding at 10 µM (S6K1): 74% | remaining binding at 10 µM (GRK4): 16% | remaining binding at 10 µM (PLK1): 100% | remaining binding at 10 µM (FES): 94% | remaining binding at 10 µM (CDK8): 98% | remaining binding at 10 µM (YANK1): 80% | remaining binding at 10 µM (CTK): 83% | remaining binding at 10 µM (CLK3): 68% | remaining binding at 10 µM (PIM3): 63%
